# Reference: US8822541B2, “Use of targeted nitroxide agents in mitigating or treating radiation injury” (University of Pittsburgh—Of the Commonwealth System of …, priority 2008, dated 2014)
# Columns and labels:
# [1] = test system: 32D cl 3 cells; assay: Clonogenic radiation survival curves of 32D cl 3 cells (PLDR study); format: cell-based, mouse; design: key to D0: D0 in Gy, from single-hit multitarget model
# Description: (§1) 32D cl 3 cells were resuspended at 1×10^5 cells/mL in 10×100-mm tubes and divided into three groups: radiation only, post-irradiation treatment with 10 μM JP4-039, and post-irradiation treatment with 10 μM TEMPO. Cells were irradiated to doses ranging from 0 to 8 Gy and were plated immediately after irradiation.
# as §1, with “5×10^5” for “1×10^5”, “then incubated in exponentially growing colonies (flasks) for 24, 48 and 72 h in a high-humidity incubator at 37° C. with 95% air/5% CO2.” for “plated immediately after irradiation.”
# 32D cl 3 cells were resuspended at 5×10^5 cells/mL in 10×100-mm tubes. Cells were irradiated to doses ranging from 0 to 8 Gy and were then centrifuged at 1500 RPM for 10 minutes and incubated in vertical tubes held tight in pellets with a total of 5×10^5 cells/pellet for 24, 48 and 72 h in a high-humidity incubator at 37° C. with 95% air/5% CO2.
# Cells incubated under either logarithmic or PLDR conditions were resuspended at 24, 48 and 72 h after irradiation, and cell viability was assessed using an automated cell viability counter (Beckman Coulter, Fullerton, Calif.). Subsequently, at 24, 48, 72 h, cells in pellets and flasks were resuspended and treated with 10 μM JP4-039, 10 μM TEMPO, or no treatment and were plated in triplicate in semisolid methylcellulose-containing medium at viable cell concentrations ranging from 500-40,000 cells/mL. Cells were incubated in a high-humidity incubator at 37° C. with 95% air/5% CO2 for 7 d and colonies of greater than 50 cells were scored according to published methods (Epperly M W, Gretton J E, Sikora C A, Jefferson M, Bernarding M, Nie S, et al.: Mitochondrial localization of superoxide, dismutase is required for decreasing radiation-induced cellular damage. Radiat Res. 160: 568-578, 2003).
# Data from radiation survival curves were analyzed using the linear-quadratic and single-hit, multitarget models (Epperly M, et al., Prevention of late effects of irradiation lung damage by manganese superoxide dismutase gene therapy. Gene Ther. 5: 196-208, 1998). Results are presented as the mean±standard error of the mean from at least three measurements. Student's t test and two-way ANOVA were used to compare means of different groups where appropriate.
# [2] = test system: Ercc1−/Δ mice; settings: parental compound, comparison statement; cited from earlier work
# [3] = test system: 32D cl 3 cells; assay: EPR-based analysis of nitroxide distribution and partitioning in subcellular fractions; format: cell-based, mouse; settings: flask or pelleted, 10 μM, 1 h
# Description: To determine nitroxide partitioning and distribution in subcellular compartments, electron paramagnetic resonance (EPR) was utilized. 32D cl 3 cells were incubated for 24 h under pelleted or flask growth conditions. After incubation, 150×10^6 cells were resuspended at a concentration of 10×10^6 cells/mL and were treated with 10 μM JP4-039 or 10 μM TEMPO for 1 h (Wipf P, et al., Mitochondrial targeting of selective electron scavengers: synthesis and biological analysis of hemigramicidin-TEMPO conjugates. J Am Chem. Soc. 127: 12460-12461, 2005).
# Subcellular compartments were isolated by differential centrifugation. Cells were centrifuged at 1500 RPM for 10 min and the supernatant (media) was removed. The remaining whole cell pellet was washed with cold PBS, resuspended in 0.3 mL of hypotonic buffer solution, and incubated on ice for 45 min. Cells were then lysed by three rapid freeze-thaw cycles in liquid nitrogen for 30 sec and water at 25° C. for 3 min. Lysed cells were centrifuged at 3000×g for 5 min to isolate nucleus and cellular debris. Supernatant was centrifuged at 12000×g for 45 min to isolate mitochondria from cytoplasm (Wipf P, et al., Mitochondrial targeting of selective electron scavengers: synthesis and biological analysis of hemigramicidin-TEMPO conjugates. J Am Chem. Soc. 127: 12460-12461, 2005).
# Each cellular fraction (media, whole cell pellet, nucleus/cellular debris, mitochondria, and cytoplasm) was mixed with DMSO (1:1 vol/vol) and 2 mM of potassium ferricyanide (K3Fe(CN)6) to convert […] to EPR-detectable radical forms (Behringer W, et al., Antioxidant Tempol enhances hypothermic cerebral preservation during prolonged cardiac arrest in dogs. J Cereb Blood Flow Metab. 22: 105-117, 2002). 70 μL of the homogenate was loaded into Teflon tubing (0.8 mm internal diameter) (Alpha Wire Corp., Elizabeth, N.J.) which was folded in half and placed into an open ESR quartz tube (inner diameter of 3.0 mm). EPR measurements were made in triplicate using a JEOL-RE1X EPR spectrometer (Jeol, Tokyo, Japan) under the following conditions: 334.7 mT center field, 5 mT sweep width, 0.079 mT field modulation, 20 mW microwave power, 0.1 sec time constant, and 2 min scan time at 22.5° C. Utilizing signal magnitude and isolated volumes, amount and concentration of JP4-039 or TEMPO were calculated for each sample.
# [4] = 0 hours, 10 μM post-irradiation
compound,measurement,setting,value
"CC1(C)CCCC(C)(C)N1[O] [TEMPO, 2,2,6,6-tetramethylpiperidine-N-oxyl, reference compound]",D0,[1]; [4],1.04 ± 0.07
same,Ñ,[1]; [4],8.23±4.35
same,radiation mitigation,[1]; 48 or 72 h after irradiation,no statistically significant radiation mitigation
same,D0,"[1]; 24 hours (Flask), 10 μM",1.26 ± 0.11
same,Ñ,"[1]; 24 hours (Flask), 10 μM",8.86 ± 6.69
same,D0,"[1]; 24 hours (Pellet), 10 μM",1.13 ± 0.19
same,Ñ,"[1]; 24 hours (Pellet), 10 μM",7.59±1.71
same,body weight,[2],cause weight loss
same,nitroxide signal in whole cell pellet and subcellular fractions,[3],below the detectable threshold
